Experiments:
[1] = biological target: Human immunodeficiency virus type 1 integrase (Human immunodeficiency virus 1, UniProt Q7ZJM1); assay: Inhibition of HIV-1 integrase after 1 hr by strand transfer activity assay
[2] = tested on: Human immunodeficiency virus 1; assay: Antiviral activity against HIV-1 infected in human TZM-bl cells after 40 to 48 hrs by beta-galactosidase assay; assay type: functional, organism-based; details: Human immunodeficiency virus 1, TZM-bl

Human immunodeficiency virus type 1 integrase, sequence (Q7ZJM1 whole entry): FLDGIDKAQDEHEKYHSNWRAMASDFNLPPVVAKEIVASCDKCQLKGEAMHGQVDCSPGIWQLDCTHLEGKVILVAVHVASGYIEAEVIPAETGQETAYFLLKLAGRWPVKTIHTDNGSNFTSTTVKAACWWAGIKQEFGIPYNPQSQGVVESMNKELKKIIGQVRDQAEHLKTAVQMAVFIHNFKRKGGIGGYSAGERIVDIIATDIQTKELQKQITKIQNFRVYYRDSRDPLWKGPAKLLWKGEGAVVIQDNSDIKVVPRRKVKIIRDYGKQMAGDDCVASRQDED

COc1c(C(=O)N2CCN(CCNC(=O)c3cc(O)c(O)c(O)c3)CC2)nc(Cc2ccc(F)cc2)n(C)c1=O
IC50 [1]: 2.5 µM

COc1c(C(=O)N2CCN(CCCNC(=O)c3cc(O)c(O)c(O)c3)CC2)nc(Cc2ccc(Cl)cc2)n(C)c1=O
IC50 [1]: 2.4 µM
EC50 [2]: 4.27 µM

COc1c(C(=O)N2CCN(CCCNC(=O)c3ccc(O)c(O)c3)CC2)nc(Cc2ccc(O)cc2)n(C)c1=O
IC50 [1]: > 100 µM

COc1c(C(=O)N2CCN(CCCNC(=O)c3cc(O)c(O)c(O)c3)CC2)nc(Cc2ccc(F)cc2)n(C)c1=O
IC50 [1]: 18.9 µM
EC50 [2]: 4.39 µM

COc1c(C(=O)N2CCN(CCCNC(=O)c3cc(O)c(O)c(O)c3)CC2)nc(Cc2ccccc2)n(C)c1=O
IC50 [1]: 0.9 µM
EC50 [2]: 1.13 µM

COc1c(C(=O)N2CCN(CCCNC(=O)c3ccc(O)c(O)c3)CC2)nc(Cc2ccccc2)n(C)c1=O
IC50 [1]: > 100 µM

COc1c(C(=O)N2CCN(CCNC(=O)c3cc(O)c(O)c(O)c3)CC2)nc(Cc2ccc(O)cc2)n(C)c1=O
IC50 [1]: 0.7 µM

COc1c(C(=O)N2CCN(CCNC(=O)c3cc(O)c(O)c(O)c3)CC2)nc(Cc2ccccc2)n(C)c1=O
IC50 [1]: 18.6 µM

COc1c(C(=O)N2CCN(CCCNC(=O)c3cc(O)c(O)c(O)c3)CC2)nc(Cc2ccc(C)cc2)n(C)c1=O
IC50 [1]: 3.5 µM
EC50 [2]: 2.76 µM

COc1c(C(=O)N2CCN(CCCNC(=O)c3cc(O)c(O)c(O)c3)CC2)nc(Cc2ccc(Cl)c(Cl)c2)n(C)c1=O
IC50 [1]: 22.4 µM

COc1c(C(=O)N2CCN(CCCNC(=O)c3ccc(O)c(O)c3)CC2)nc(Cc2ccc(F)cc2)n(C)c1=O
IC50 [1]: > 100 µM
